Test results reported in PubChem BioAssay AID1963872 (Molecular Pharmacology Branch, DTP, NCI, 2024).

Test system: KRAS patient-derived spheroids with HUVEC/MSC, viability
Assay: Anticancer human tumor 519858-162-T-J1-PDC patient-derived colon adenocarcinoma cell line growth inhibition [KRAS2]
Conditions: for viability, T/C: stronger effect = lower value
Source text: Multicellular complex tumor spheroid response to RAS pathway inhibitors in combination with a targeted agents in patient-derived cell lines with oncogenic KRAS variants from multiple cancer types
A high-throughput screen of multi-cell type tumor spheroids was designed to identify active combinations of targeted small molecules and KRAS pathway inhibitors. Complex spheroids include a stromal component modeled by human endothelial cells (HUVEC) and fibroblasts modeled by human mesenchymal stem cells (MSCs). The concentration ranges selected for each drug and investigational agent were based upon clinically achievable concentrations if the clinical Cmax of the agent was known.
Compounds. The drugs and investigational agents: BI-3406 (NSC825286), BAY-293 (NSC824723), batoprotafib (TNO155; NSC825523), sotorasib (AMG 510; NSC818433), MRTX1257 (NSC819558), elimusertib (BAY 1895344; NSC800525), molibresib (GSK525762; NSC774829), temuterkib (LY3214996; NSC803410), venetoclax (NSC766270), alisertib (NSC759677), olaparib (NSC753686), talazoparib (NSC767125), erdafitinib (NSC781556), ipatasertib (NSC767898), cabozantinib (NSC761068), nintedanib (NSC756659), abemaciclib (NSC768073), docetaxel (NSC628503), trametinib (NSC758246), and sapanisertib (NSC764658) were obtained from the National Cancer Institute (NCI) Developmental Therapeutics Program Chemical Repository. The FDA-approved anticancer drug set is available from the Developmental Therapeutics Program. […] The stock solutions were prepared in dimethyl sulfoxide (DMSO, Sigma-Aldrich, St. Louis, MO, cat. D2650) at 800-fold the tested concentration and stored at -70 degrees C prior to their use. All drugs and investigational agents were tested over a range starting from a high concentration at or near the clinical Cmax and decreasing in half-log increments. If the clinical Cmax for an agent had not been determined, the highest concentration tested was 10 microM.
Cell Culture. All cells were maintained in an incubator at 37 degrees C and 5% CO2 with 95% humidity. The PDC lines were cultured according to standard operating procedures established by the NCI PDMR (https://pdmr.cancer.gov/sops/default.htm). Briefly, all PDCs were thawed and cultured in Matrigel-coated flasks prepared with a working solution of 1X Ham's F-12 nutrient mix, without supplementation (Invitrogen, Waltham, MA, cat. 11765054), 100 U/mL penicillin-streptomycin (Invitrogen, cat. 15140122), and 2.5% Matrigel (Corning Inc., Corning, NY, cat. 354248) for the first three passages. All PDCs were cultured in complete DMEM/F-12 media containing advanced DMEM/F-12 (Invitrogen, cat. 12634028), 4.9% defined fetal bovine serum, heat inactivated (HyClone Laboratories Inc., Logan, UT, cat. SH30070.03HI), 389 ng/mL hydrocortisone (Sigma-Aldrich, cat. H4001), 9.7 ng/mL human EGF recombinant protein (Invitrogen, cat. PHG0313), 23.4 microg/mL adenine (Sigma-Aldrich, cat. A2786), 97.3 U/mL penicillin-streptomycin (Invitrogen, cat. 15140122), 1.9 mM L-glutamine (Invitrogen, cat. 25030081), and 9.7 microM Y-27632 dihydrochloride (Tocris Bioscience, Bristol, United Kingdom, cat. 1254). The PDCs were cultured in complete DMEM/F12 media without 9.7 microM Y-27632 dihydrochloride for at least two passages prior to the screen. The established cell line HOP-62 was cultured in RPMI 1640 medium, HEPES (Invitrogen, cat. 22400105) with 10% defined fetal bovine serum (HyClone Laboratories Inc., cat. SH30070.03) and 2 mM L-glutamine (Invitrogen, cat. 25030081). The pooled donor HUVEC were cultured in endothelial cell growth medium 2 (PromoCell, Heidelberg, Germany, cat. C-22011) and the hMSC were cultured in mesenchymal stem cell growth medium 2 (PromoCell, cat. C-28009). For all experiments, HUVEC and hMSC were used at passages </=5, while the malignant cell lines were used at passages </=15. […]

[1] = curve of first compound, second compound 0.1 µM
[2] = curve of first compound, second compound 0.316 µM
[3] = curve of first compound, second compound 1 µM
[4] = curve of first compound, second compound 3.16 µM
[5] = curve of first compound, second compound 10 µM
[6] = second compound 0.1 µM, first compound 0.0316 µM
[7] = second compound 0.1 µM, first compound 0.1 µM
[8] = second compound 0.1 µM, first compound 0.316 µM
[9] = second compound 0.1 µM, first compound 1 µM
[10] = second compound 0.1 µM, first compound 3.16 µM
[11] = second compound 0.316 µM, first compound 0.0316 µM
[12] = second compound 0.316 µM, first compound 0.1 µM
[13] = second compound 0.316 µM, first compound 0.316 µM
[14] = second compound 0.316 µM, first compound 1 µM
[15] = second compound 0.316 µM, first compound 3.16 µM
[16] = second compound 1 µM, first compound 0.0316 µM
[17] = second compound 1 µM, first compound 0.1 µM
[18] = second compound 1 µM, first compound 0.316 µM
[19] = second compound 1 µM, first compound 1 µM
[20] = second compound 1 µM, first compound 3.16 µM
[21] = second compound 3.16 µM, first compound 0.0316 µM
[22] = second compound 3.16 µM, first compound 0.1 µM
[23] = second compound 3.16 µM, first compound 0.316 µM
[24] = second compound 3.16 µM, first compound 1 µM
[25] = second compound 3.16 µM, first compound 3.16 µM
[26] = second compound 10 µM, first compound 0.0316 µM
[27] = second compound 10 µM, first compound 0.1 µM
[28] = second compound 10 µM, first compound 0.316 µM
[29] = second compound 10 µM, first compound 1 µM
[30] = second compound 10 µM, first compound 3.16 µM
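Note: compound exposure lasted seven days before readout.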
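Throughout, for viability, T/C: 100% = DMSO vehicle control viability.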

Row | Structure (SMILES) | IC50 [1] [µM] | IC50 [2] [µM] | IC50 [3] [µM] | IC50 [4] [µM] | IC50 [5] [µM] | viability, T/C [6] [%] | viability, T/C [7] [%] | viability, T/C [8] [%] | viability, T/C [9] [%] | viability, T/C [10] [%] | viability, T/C [11] [%] | viability, T/C [12] [%] | viability, T/C [13] [%] | viability, T/C [14] [%] | viability, T/C [15] [%] | viability, T/C [16] [%] | viability, T/C [17] [%] | viability, T/C [18] [%] | viability, T/C [19] [%] | viability, T/C [20] [%] | other results
1 | CC(=O)OC12COC1CC(O)C1(C)C(=O)C(O)C3=C(C)C(OC(=O)C(O)C(NC(=O)OC(C)(C)C)c4ccccc4)CC(O)(C(OC(=O)c4ccccc4)C21)C3(C)C (centres undefined) + CC1OCC2(CCN(c3cnc(Sc4ccnc(N)c4Cl)c(N)n3)CC2)C1N | > 3.16 | > 3.16 | > 3.16 | 0.261 | 0.205 | 71.1 | 89.4 | 109 | 79.5 | 80.7 | 84.8 | 90.3 | 55.5 | 63.4 | 51.5 | 71.2 | 104 | 81.8 | 83.3 | 101 | viability, T/C (second compound 0.1 µM, first compound 0.01 µM): 73.8%; viability, T/C (second compound 0.316 µM, first compound 0.01 µM): 79.9%; viability, T/C (second compound 1 µM, first compound 0.01 µM): 88.9%; viability, T/C (second compound 3.16 µM, first compound 0.01 µM): 59.6%; viability, T/C [21]: 77.2%; viability, T/C [22]: 64.7%; viability, T/C [23]: 46.9%; viability, T/C [24]: 28.5%; viability, T/C [25]: 36.3%; viability, T/C (second compound 10 µM, first compound 0.01 µM): 74.3%; viability, T/C [26]: 79.8%; viability, T/C [27]: 58.8%; viability, T/C [28]: 36.1%; viability, T/C [29]: 50.6%; viability, T/C [30]: 47.4%
2 | COC(=O)c1ccc2c(C(=Nc3ccc(N(C)C(=O)CN4CCN(C)CC4)cc3)c3ccccc3)c(O)[nH]c2c1 + CC1OCC2(CCN(c3cnc(Sc4ccnc(N)c4Cl)c(N)n3)CC2)C1N | > 10 | > 10 | > 10 | > 10 | > 10 | 66 | 80 | 63.4 | 66 | 99.7 | 72.7 | 67.5 | 86.5 | 64.1 | 67 | 75.4 | 75 | 56.9 | 70.7 | 64.6 | viability, T/C (second compound 0.1 µM, first compound 10 µM): 74.6%; viability, T/C (second compound 0.316 µM, first compound 10 µM): 98.8%; viability, T/C (second compound 1 µM, first compound 10 µM): 84%; viability, T/C [21]: 47.9%; viability, T/C [22]: 60.9%; viability, T/C [23]: 72.7%; viability, T/C [24]: 52.6%; viability, T/C [25]: 67.4%; viability, T/C (second compound 3.16 µM, first compound 10 µM): 83.2%; viability, T/C [26]: 49.9%; viability, T/C [27]: 58%; viability, T/C [28]: 64.7%; viability, T/C [29]: 69.2%; viability, T/C [30]: 75.3%; viability, T/C (second compound 10 µM, first compound 10 µM): 88.3%
3 | CC(C)NCC(C(=O)N1CCN(c2ncnc3c2C(C)CC3O)CC1)c1ccc(Cl)cc1 (centres undefined) | – | – | – | – | – | – | – | – | – | – | – | – | – | – | – | – | – | – | – | – | viability, T/C (compound 0.316 µM): 96.2% [middle of 5 runs]; viability, T/C (compound 1 µM): 89.7% [middle of 5 runs]; viability, T/C (compound 10 µM): 97.3% [middle of 5 runs]; IC50 (curve of compound): > 10 µM
